This passage reports remaining activity results from paper PMC7827406, “Structure–Activity Relationship (SAR) Study of Spautin-1 to Entail the Discovery of Novel NEK4 Inhibitors” (International Journal of Molecular Sciences, 2021).

Molecules are shown by their SMILES. Where two headings read alike, the source gives them in different places.

Holding throughout (assay): biochemical
Set-up in all cases: Eurofins KinaseProfiler full panel at Km ATP, residual kinase activity (%) relative to DMSO

One assay deals with T1, Axl(h) (Homo sapiens, UniProt P30530).
T1 sequence (P30530 1-894): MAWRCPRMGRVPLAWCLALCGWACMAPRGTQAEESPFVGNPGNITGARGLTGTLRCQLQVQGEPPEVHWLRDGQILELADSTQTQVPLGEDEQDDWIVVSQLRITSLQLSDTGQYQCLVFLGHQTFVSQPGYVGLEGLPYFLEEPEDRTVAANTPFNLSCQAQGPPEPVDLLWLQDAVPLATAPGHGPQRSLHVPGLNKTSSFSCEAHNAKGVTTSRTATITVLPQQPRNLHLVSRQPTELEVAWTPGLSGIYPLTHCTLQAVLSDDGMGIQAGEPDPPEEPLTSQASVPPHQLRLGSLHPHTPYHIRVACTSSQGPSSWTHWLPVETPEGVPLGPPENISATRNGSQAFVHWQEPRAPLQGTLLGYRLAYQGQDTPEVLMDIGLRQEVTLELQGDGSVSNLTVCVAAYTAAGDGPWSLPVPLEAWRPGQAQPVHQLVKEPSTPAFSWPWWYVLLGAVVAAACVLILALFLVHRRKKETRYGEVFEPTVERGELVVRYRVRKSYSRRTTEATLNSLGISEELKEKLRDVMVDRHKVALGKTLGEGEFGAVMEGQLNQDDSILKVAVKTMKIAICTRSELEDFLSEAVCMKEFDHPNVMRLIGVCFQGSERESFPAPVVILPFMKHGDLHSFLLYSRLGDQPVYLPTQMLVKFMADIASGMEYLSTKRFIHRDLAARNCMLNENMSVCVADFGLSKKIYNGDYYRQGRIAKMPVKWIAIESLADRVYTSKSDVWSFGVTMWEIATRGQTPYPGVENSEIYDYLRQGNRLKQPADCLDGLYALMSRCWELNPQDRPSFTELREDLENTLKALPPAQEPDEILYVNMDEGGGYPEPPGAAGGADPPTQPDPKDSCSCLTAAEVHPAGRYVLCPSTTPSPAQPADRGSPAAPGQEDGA
Summed up: (§1)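 Radiometric kinase activity assays were run with ATP at Km and compounds at 10 µM, and remaining activity (%) was reported. A separate competitive binding screen measured DNA-tagged kinase displaced from immobilized active-site ligands by qPCR, giving percent kinase still bound at 10 µM compound in DMSO.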

The target in the next assay is T2, c-RAF(h) (Homo sapiens, UniProt P04049).
T2 construct: gene RAF1
T2 sequence (P04049 whole entry): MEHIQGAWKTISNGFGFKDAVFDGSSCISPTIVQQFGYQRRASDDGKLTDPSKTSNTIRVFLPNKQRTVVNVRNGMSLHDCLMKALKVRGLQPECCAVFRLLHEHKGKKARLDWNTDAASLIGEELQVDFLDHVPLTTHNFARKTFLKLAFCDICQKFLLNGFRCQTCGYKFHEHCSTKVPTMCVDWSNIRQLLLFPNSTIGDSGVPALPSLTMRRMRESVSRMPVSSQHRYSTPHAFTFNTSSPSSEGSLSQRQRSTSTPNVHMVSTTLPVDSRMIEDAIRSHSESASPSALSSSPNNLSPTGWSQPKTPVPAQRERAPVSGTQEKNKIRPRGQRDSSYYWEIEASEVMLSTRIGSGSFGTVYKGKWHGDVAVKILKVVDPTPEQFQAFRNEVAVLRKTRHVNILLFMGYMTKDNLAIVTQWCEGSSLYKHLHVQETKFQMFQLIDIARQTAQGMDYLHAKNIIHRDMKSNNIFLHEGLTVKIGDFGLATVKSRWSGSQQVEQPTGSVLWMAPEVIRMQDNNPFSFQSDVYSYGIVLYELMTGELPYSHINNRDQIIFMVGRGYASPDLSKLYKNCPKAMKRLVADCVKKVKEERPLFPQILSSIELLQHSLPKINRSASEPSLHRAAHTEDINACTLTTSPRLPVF
Summed up:
as §1

In the next assay the target is Hck(h) activated (Homo sapiens, UniProt P08631). The essentials:
as §1

The target in a further assay is T3, MAPKAP-K2(h) (Homo sapiens, UniProt P49137).
T3 construct: gene MAPKAPK2
T3 sequence (P49137 whole entry): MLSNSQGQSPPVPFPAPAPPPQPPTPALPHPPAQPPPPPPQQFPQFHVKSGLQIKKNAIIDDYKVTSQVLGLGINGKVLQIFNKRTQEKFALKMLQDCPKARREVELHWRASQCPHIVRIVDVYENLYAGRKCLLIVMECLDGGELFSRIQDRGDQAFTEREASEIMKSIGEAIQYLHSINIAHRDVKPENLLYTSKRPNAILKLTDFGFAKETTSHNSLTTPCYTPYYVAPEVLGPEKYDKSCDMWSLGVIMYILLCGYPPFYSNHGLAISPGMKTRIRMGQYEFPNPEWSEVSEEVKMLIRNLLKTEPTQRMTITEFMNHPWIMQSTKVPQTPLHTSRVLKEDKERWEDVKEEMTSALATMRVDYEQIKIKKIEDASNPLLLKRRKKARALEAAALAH
The essentials: as §1

The next assay addresses NEK6(h) (Homo sapiens, UniProt Q9HC98). The essentials:
as §1

The target of another assay is Ret(V804M)(h) (Homo sapiens, UniProt P07949, V804M). Summed up: as §1
Sequence of Ret(V804M)(h) (P07949 whole entry V804M): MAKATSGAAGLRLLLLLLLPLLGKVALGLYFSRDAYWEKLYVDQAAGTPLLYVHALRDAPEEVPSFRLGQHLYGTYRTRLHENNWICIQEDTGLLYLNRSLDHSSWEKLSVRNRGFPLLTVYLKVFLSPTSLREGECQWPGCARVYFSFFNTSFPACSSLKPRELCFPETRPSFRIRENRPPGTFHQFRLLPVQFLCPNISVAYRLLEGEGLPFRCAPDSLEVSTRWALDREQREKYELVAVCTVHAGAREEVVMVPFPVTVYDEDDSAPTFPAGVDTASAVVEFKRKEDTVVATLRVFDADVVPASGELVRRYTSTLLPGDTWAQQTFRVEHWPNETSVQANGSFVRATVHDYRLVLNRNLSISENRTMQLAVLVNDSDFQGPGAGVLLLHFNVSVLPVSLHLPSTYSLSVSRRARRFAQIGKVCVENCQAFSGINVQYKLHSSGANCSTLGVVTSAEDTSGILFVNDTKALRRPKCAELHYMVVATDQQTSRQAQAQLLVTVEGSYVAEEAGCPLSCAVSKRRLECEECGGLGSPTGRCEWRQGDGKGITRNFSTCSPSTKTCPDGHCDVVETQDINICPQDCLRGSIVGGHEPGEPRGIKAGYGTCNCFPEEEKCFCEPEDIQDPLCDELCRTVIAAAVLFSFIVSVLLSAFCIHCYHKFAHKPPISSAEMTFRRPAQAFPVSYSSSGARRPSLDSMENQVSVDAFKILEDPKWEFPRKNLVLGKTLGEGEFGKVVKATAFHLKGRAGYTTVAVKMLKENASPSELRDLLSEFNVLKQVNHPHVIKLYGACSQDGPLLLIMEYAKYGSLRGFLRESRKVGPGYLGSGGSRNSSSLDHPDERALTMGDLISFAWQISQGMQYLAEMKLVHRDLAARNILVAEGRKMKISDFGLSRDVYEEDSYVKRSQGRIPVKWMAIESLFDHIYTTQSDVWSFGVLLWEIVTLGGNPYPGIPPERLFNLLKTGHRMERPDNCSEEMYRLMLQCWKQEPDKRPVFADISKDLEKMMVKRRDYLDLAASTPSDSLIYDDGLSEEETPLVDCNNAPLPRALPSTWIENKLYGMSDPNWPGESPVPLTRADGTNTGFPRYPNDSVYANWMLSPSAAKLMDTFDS
In a further assay the target is T4, IGF-1R(h), activated (Homo sapiens, UniProt P08069).
T4 construct: gene IGF1R
T4 sequence (P08069 whole entry): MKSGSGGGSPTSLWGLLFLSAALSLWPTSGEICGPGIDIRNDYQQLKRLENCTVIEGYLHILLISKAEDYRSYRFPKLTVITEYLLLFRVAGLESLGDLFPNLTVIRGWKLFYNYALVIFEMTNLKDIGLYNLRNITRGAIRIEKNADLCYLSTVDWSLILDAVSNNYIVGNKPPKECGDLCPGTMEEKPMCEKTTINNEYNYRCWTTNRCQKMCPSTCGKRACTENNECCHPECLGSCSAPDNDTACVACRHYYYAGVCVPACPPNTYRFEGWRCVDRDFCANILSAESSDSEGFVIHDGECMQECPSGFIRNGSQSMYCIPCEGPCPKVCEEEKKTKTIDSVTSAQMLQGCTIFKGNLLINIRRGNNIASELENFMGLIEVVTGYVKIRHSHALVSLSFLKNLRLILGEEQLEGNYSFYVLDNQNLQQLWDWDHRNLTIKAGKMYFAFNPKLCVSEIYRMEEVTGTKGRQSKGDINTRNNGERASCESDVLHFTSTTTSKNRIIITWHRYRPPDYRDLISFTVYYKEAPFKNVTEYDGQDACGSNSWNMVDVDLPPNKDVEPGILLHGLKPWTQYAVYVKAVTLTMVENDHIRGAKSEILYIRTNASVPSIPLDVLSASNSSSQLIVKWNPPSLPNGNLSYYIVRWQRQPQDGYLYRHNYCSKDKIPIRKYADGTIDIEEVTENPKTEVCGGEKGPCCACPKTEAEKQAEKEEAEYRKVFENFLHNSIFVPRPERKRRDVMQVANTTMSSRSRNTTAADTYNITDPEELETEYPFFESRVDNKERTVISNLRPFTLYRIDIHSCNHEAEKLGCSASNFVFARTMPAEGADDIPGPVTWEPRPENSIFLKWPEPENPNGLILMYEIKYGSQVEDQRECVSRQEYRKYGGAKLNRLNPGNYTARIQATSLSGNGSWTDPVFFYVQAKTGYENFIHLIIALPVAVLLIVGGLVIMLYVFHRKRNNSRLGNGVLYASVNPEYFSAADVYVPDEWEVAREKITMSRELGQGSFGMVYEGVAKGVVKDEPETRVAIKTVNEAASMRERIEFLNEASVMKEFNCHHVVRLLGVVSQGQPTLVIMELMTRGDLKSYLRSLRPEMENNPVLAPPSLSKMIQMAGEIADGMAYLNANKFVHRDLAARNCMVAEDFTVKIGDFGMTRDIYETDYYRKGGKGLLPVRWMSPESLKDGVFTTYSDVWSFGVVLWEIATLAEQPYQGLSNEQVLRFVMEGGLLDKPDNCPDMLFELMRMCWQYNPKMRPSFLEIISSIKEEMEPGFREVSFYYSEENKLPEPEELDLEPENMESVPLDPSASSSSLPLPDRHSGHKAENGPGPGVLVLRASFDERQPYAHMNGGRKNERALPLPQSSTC
Summed up: as §1

For a further assay, the target named is T5, MST3(h) (Homo sapiens, UniProt Q9Y6E0).
T5 construct: gene STK24
T5 sequence (Q9Y6E0 whole entry): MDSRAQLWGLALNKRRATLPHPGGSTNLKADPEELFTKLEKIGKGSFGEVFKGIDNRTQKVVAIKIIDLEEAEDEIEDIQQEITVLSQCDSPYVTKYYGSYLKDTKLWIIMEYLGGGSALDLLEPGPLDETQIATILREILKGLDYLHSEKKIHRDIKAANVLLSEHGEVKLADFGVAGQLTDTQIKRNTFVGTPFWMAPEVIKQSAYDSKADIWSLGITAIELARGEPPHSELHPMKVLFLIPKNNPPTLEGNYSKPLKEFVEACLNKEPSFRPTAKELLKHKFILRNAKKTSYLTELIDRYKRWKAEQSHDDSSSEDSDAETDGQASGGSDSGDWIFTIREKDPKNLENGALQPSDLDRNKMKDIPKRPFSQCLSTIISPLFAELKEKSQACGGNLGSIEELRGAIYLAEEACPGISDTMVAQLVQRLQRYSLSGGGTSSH
Summed up:
as §1

Another assay has as its target T6, Txk(h) (Homo sapiens, UniProt P42681).
T6 sequence (P42681 1-527): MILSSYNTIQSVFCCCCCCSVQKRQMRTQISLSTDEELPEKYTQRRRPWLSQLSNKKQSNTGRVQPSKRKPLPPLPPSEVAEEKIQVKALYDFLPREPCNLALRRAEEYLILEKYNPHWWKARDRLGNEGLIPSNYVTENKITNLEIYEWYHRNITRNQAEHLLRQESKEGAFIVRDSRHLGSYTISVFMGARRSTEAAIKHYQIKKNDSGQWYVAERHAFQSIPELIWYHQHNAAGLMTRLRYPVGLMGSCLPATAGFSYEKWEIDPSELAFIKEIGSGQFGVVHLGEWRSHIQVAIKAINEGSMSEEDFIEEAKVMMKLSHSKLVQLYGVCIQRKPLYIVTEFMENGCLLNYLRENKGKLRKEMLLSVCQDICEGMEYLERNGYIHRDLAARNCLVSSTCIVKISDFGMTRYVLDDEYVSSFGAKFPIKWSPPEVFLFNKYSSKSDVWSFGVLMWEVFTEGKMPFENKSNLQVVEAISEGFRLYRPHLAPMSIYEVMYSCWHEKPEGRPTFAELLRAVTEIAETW
The essentials: as §1

The next assay deals with T7, Aurora-B(h) (Homo sapiens, UniProt Q96GD4).
T7 construct: gene AURKB
The essentials: as §1

Where [1] appears, read: read-out: Residual activity (%) Spautin-1 5aa.
Where [2] appears, read: read-out: Residual activity (%) 5as.
Setting [3] is: read-out: Residual activity (%) 5at.
The mark [4] stands for this setting: read-out: Residual activity (%) 5ay.

Sequence of NEK6(h) (Q9HC98 whole entry): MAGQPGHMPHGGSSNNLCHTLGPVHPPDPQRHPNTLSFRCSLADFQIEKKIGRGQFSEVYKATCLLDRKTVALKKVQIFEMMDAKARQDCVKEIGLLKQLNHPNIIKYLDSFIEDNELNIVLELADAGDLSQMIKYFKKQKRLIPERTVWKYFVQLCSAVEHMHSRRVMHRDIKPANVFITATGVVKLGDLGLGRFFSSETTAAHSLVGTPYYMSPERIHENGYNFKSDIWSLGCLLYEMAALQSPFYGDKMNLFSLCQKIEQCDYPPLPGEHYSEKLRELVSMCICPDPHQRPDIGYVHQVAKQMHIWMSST
Sequence of Hck(h) activated (P08631 whole entry): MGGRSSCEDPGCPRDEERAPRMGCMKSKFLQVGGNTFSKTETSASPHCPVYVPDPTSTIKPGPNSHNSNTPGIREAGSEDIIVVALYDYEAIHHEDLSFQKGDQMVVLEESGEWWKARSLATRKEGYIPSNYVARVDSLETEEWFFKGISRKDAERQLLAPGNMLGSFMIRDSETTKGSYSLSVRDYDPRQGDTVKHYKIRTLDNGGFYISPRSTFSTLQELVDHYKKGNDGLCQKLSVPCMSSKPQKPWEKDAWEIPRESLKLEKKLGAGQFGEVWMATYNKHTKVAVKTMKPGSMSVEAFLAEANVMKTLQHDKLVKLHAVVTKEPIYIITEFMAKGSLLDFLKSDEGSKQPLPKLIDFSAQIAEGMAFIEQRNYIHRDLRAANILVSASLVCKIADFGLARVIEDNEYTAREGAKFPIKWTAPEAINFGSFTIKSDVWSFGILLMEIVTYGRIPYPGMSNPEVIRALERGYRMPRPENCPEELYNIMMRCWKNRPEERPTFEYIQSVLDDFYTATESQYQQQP

As for `Fc1ccc(CNc2ncnc3ccc(F)cc23)cc1` [5aa, 6-Fluoro-N-(4-fluorobenzyl)-4-Quinazolinamine], the remaining activity at 10 µM at Axl(h) (setting [1]) came out at 62%; on c-RAF(h) (setting [1]) it was 110%; on Hck(h) activated (setting [1]), 85%; at MAPKAP-K2(h) (setting [1]) it was 79%; on NEK6(h) (setting [1]) it was 103%; at Ret(V804M)(h) (setting [1]), 99%. Besides, the remaining activity at 10 µM at IGF-1R(h), activated (setting [1]) amounted to 78%; at MST3(h) (setting [1]), 80%; at Txk(h) (setting [1]), 92%; on Aurora-B(h) (setting [1]), 85%.
In the case of `Fc1ccc(CCNc2ncnc3ccc(F)cc23)cc1` [5as, 6-Fluoro-N-[2-(4-Fluorophenyl)Ethyl]-4-Quinazolinamine], the remaining activity at 10 µM at Axl(h) (setting [2]) came to 90%; on c-RAF(h) (setting [2]), 114%; on Hck(h) activated (setting [2]), 85%; at MAPKAP-K2(h) (setting [2]), 85%; at NEK6(h) (setting [2]), 94%; at Ret(V804M)(h) (setting [2]), 85%. The remaining activity at 10 µM amounted to 72% on IGF-1R(h), activated (setting [2]); 89% at MST3(h) (setting [2]); 83% on Txk(h) (setting [2]); 69% at Aurora-B(h) (setting [2]).
Consider `Fc1ccc2ncnc(NCCc3ccc(Cl)cc3)c2c1` [5at, N-[2-(4-Chlorophenyl)Ethyl]-6-Fluoro-4-Quinazolinamine], for which the remaining activity at 10 µM at Axl(h) (setting [3]) was 75%; on c-RAF(h) (setting [3]), 117%; on Hck(h) activated (setting [3]), 108%; at MAPKAP-K2(h) (setting [3]) it was 97%; on NEK6(h) (setting [3]), 79%; on Ret(V804M)(h) (setting [3]), 73%. In addition, the remaining activity at 10 µM on IGF-1R(h), activated (setting [3]) is 76%; at MST3(h) (setting [3]), 74%; on Txk(h) (setting [3]), 82%; on Aurora-B(h) (setting [3]), 48%.
With `COc1ccc2ncnc(Nc3cccc(F)c3)c2c1` [5ay, N-(3-Fluorophenyl)-6-Methoxy-4-Quinazolinamine], the remaining activity at 10 µM on Axl(h) (setting [4]) is 64%; at c-RAF(h) (setting [4]) it was 102%; at Hck(h) activated (setting [4]), 46%; at MAPKAP-K2(h) (setting [4]), 80%; at NEK6(h) (setting [4]) it was 91%; at Ret(V804M)(h) (setting [4]), 102%. Moreover, the remaining activity at 10 µM on IGF-1R(h), activated (setting [4]) turned out to be 73%; at MST3(h) (setting [4]) it was 86%; at Txk(h) (setting [4]), 85%; at Aurora-B(h) (setting [4]), 59%.
